The values below come from ChEMBL document CHEMBL3351773, “Effect of p-aminophenols on tyrosinase activity” (Bioorg Med Chem, 2014).

In assay [1] the target is T1, Tyrosinase (Agaricus bisporus, UniProt O42713).
T1 sequence (O42713 whole entry): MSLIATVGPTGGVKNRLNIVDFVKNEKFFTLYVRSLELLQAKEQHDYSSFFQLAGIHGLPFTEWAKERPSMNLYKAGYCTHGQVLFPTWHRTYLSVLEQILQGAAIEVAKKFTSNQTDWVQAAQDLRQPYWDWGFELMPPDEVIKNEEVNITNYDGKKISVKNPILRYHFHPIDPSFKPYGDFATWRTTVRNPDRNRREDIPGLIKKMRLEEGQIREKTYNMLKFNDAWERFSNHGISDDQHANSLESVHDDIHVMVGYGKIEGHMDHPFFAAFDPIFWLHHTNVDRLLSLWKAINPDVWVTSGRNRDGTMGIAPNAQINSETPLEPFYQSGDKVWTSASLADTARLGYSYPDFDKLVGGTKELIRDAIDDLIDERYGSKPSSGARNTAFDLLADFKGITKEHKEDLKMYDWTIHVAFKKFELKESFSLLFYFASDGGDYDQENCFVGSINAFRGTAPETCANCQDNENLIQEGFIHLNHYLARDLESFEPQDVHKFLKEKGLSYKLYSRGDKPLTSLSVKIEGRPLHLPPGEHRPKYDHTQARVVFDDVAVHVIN
The experiment in a line: (§1) Inhibition of mushroom tyrosinase using L-DOPA as substrate by spectrophotometry relative to control.

Assay [2] concerns the target T2, Tyrosinase (Agaricus bisporus) (UniProt O42713).
T2 sequence (whole entry): T1 sequence (O42713 whole entry)
Described as §1.

The target of assay [3] is T1, Tyrosinase. The assay can be described thus: (§2) Inhibition of mushroom tyrosinase using L-tyrosine as substrate by spectrophotometry.
For assay [4], the target named is T2, Tyrosinase (Agaricus bisporus). The description is as §2.
The target is the same in assay [5]. The assay can be described thus: Non-competitive inhibition of mushroom tyrosinase using L-DOPA as substrate by Lineweaver-Burk double reciprocal plot method.
Assay [6] has the same target. The experiment in a line: Non-competitive inhibition of mushroom tyrosinase using L-tyrosine as substrate by Lineweaver-Burk double reciprocal plot method.
The target is the same in assay [7]. The experiment in a line: Inhibition of mushroom tyrosinase using L-DOPA as substrate at 100 uM by spectrophotometry relative to control.
Assay [8] has the same target. The assay can be described thus: Inhibition of mushroom tyrosinase using L-tyrosine as substrate at 200 uM by spectrophotometry relative to control.
Assay [9] shares this target. The assay can be described thus: Inhibition of mushroom tyrosinase using L-DOPA as substrate at 200 uM by spectrophotometry relative to control.
The target is the same in assay [10]. The experiment in a line: Inhibition of mushroom tyrosinase using L-tyrosine as substrate at 100 uM by spectrophotometry relative to control.

Activity calls are given as the source filed them. No cut-off for these calls is given here. A value given as a limit tells only on which side of the number the result lay.

For the molecule `CCCCCCCCCCNc1ccc(O)cc1`, the half-maximal inhibitory concentration (IC50) against Tyrosinase [1] was 30.1 µM; against Tyrosinase [3], 5.7 µM. Also, the inhibition entry in assay [2] and in assay [4] was “Dose-dependent effect” in each case. In addition, the inhibition entry in assay [5] and in [6] was “Active” throughout.

`CCCCCCCCCCCCNc1ccc(O)cc1`: the inhibition in [7] was 25%; in [8], 27%; in assay [2], “Dose-dependent effect”; in assay [9] it was 45%; in [10], 23%; in assay [4], “Dose-dependent effect”. In addition, the IC50 on Tyrosinase [1] and against Tyrosinase [3] was > 200 µM each time. Also, the inhibition result in assay [5] and in assay [6] was “Active” in each case.
